The record followed here is US20250236596A1, “HYDROXYLAMINE-BASED EGFR INHIBITORS FOR TREATMENT OF CANCER WITH BRAIN METASTASES” (University of Georgia Research Foundation, Inc., priority 2022, published 2025).

Structures are written as SMILES. Some results are limits rather than exact numbers.

The nature of data set [1]: Metabolic stability in hepatocytes. It counts as in vitro ADME. The conditions noted are these: human and rat; result in words. The protocol:
Assessment of the compounds metabolic stability in incubations containing liver microsomes and hepatocytes of human and rat using the compound depletion approach was performed by Pharmaron Inc. Compound 15 underwent additional stability evaluation in monkey and dog hepatocytes. Microsome stability was assessed in duplicate (n=2) in the presence and absence of NADPH with liver microsomes (0.5 mg/mL) from human (BD Gentest) and SD rat (BD Gentest). Compounds were incubated in liver microsomes at 1 μM and samples (30 μL) were taken at 0.5, 15, 30, 45 and 60 min time points for analysis by LC-MS/MS. Hepatocyte stability was assessed in duplicate (n=2) at a working cell density of 0.5×10^6 cells/mL with hepatocytes from human (BioIVT), SD rat (BioIVT), cynomolgous monkey (RILD) or beagle dog (BioIVT). Compounds were incubated in hepatocytes at 1 μM and samples (25 μL) were taken at 0.5, 15, 30, 60, 90 and 120 min time points for analysis by LC-MS/MS. The in vitro half-life and intrinsic clearances were determined as previously described.^19
In vitro half-life (in vitro t1/2) was determined from the slope value in: in vitro t1/2=−(0.693/k).
Where, k, was determined by linear regression of the natural logarithm of the remaining percentage of the parent drug vs incubation time curve.

The target in another data set is CYP2C9 (Homo sapiens, UniProt P11712). Nature of the data set: Human CYP450 inhibition in human liver microsomes, CYP2C9. It counts as in vitro ADME. To be noted: pooled human liver microsomes, probe diclofenac (6 μM), 4′-hydroxylation. The protocol:
(§1) Assessment of compound 15 was carried out at Pharmaron Inc. for its potential to inhibit cytochrome P450 (CYP) isoforms using human liver microsomes. The activities tested were CYP1A2-mediated phenacetin O-demethylation, CYP2C19-mediated (S)-mephenytoin 4′-hydroxylation, CYP2C9-mediated diclofenac 4′-hydroxylation, CYP2D6-mediated dextromethorphan O-demethylation and CYP3A4-mediated midazolam 1′-hydroxylation. Concentrations of substrates were phenacetin (40 μM), mephenytoin (50 μM), diclofenac (6 μM), dextromethorphan (2 μM) and midazolam (1 μM). Probe substrates phenacetin, mephenytoin and dextromethorphan were incubated at 37° for 20 min. Probe substrates diclofenac and midazolam were incubated at 37° for 5 min. […] The reactions were initiated by adding NADPH (1 mM final concentration) after a 5 min-preincubation and the assay was ran in duplicate (n=2). Samples were analyzed by UPLC-MS/MS.
Background: Liver microsomes are a subcellular fraction often used to study metabolism.

A further data set concerns the target T1, hERG channel (Homo sapiens, UniProt Q12809).
T1 construct: assay at Pharmaron Inc; host or cells: HEK293
Briefly: hERG channel inhibition, manual patch clamp. The format is cell-based. As for the experimental part:
The potential inhibitory effect of compounds on the hERG channel was assessed by Pharmaron Inc. using the manual patch clamp system as previously described.^20 The HEK293 cell line (Invitrogen) stably transfected with the hERG gene was employed. Compounds were tested at 5 concentrations (0.37, 1.11, 3.33, 10 and 30 μM) and run in triplicate (n=3). IC50 values were determined by plotting the % inhibition against the concentration of compounds using GraphPad Prism from the non-linear regression equation fitted with a sigmoidal dose-response curve, and the IC50 values are presented as the mean±SEM.
(Block of hERG is tested as a sign of cardiac risk.)

Another data set deals with CYP2C19 (Homo sapiens, UniProt P33261). Briefly: Human CYP450 inhibition in human liver microsomes, CYP2C19. It counts as in vitro ADME. To be noted: pooled human liver microsomes, probe (S)-mephenytoin (50 μM), 4′-hydroxylation. As for the experimental part: as §1
Sequence of CYP2C19 (P33261 whole entry): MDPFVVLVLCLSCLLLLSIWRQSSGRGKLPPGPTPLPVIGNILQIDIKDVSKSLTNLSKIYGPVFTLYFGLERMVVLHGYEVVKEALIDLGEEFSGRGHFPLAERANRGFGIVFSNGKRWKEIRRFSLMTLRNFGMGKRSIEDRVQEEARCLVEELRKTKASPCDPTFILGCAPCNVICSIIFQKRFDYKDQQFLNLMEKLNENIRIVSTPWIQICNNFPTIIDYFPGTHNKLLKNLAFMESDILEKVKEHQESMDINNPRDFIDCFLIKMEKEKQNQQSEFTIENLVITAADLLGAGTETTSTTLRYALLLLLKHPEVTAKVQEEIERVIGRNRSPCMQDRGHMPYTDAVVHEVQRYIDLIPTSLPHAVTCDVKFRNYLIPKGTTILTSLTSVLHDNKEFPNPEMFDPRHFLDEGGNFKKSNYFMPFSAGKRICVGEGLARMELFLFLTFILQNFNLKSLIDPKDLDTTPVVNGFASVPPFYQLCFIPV

T1 sequence (Q12809 whole entry): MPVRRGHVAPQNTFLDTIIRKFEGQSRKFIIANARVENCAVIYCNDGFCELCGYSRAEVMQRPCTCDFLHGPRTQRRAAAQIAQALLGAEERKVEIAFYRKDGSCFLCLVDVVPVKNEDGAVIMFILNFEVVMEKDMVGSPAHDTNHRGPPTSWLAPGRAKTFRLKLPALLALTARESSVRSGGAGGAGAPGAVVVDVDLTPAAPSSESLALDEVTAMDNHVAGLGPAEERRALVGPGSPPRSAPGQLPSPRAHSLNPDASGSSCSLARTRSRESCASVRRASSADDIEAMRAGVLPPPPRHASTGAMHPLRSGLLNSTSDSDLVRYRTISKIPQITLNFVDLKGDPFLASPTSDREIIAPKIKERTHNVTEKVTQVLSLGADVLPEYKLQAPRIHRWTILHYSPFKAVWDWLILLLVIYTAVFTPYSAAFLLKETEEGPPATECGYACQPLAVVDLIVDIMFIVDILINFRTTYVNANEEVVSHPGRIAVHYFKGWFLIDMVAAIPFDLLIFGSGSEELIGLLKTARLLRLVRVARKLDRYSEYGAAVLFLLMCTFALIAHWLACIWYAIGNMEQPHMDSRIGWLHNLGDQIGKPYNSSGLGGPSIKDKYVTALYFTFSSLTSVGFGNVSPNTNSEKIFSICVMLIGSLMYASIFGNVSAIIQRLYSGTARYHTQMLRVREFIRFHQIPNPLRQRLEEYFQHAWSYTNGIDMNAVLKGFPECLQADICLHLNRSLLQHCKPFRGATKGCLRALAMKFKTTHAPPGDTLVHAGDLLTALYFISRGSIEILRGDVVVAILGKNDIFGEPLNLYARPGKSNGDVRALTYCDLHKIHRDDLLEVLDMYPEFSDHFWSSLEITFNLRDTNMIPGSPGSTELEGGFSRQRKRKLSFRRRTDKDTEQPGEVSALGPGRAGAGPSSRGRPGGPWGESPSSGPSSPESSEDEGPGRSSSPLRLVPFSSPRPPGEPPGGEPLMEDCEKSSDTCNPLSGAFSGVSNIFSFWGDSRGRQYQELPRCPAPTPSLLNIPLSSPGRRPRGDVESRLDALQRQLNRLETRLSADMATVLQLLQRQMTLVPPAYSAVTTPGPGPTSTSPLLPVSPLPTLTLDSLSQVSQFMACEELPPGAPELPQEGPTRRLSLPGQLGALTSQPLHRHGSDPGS
Sequence of CYP2C9 (P11712 whole entry, canonical isoform): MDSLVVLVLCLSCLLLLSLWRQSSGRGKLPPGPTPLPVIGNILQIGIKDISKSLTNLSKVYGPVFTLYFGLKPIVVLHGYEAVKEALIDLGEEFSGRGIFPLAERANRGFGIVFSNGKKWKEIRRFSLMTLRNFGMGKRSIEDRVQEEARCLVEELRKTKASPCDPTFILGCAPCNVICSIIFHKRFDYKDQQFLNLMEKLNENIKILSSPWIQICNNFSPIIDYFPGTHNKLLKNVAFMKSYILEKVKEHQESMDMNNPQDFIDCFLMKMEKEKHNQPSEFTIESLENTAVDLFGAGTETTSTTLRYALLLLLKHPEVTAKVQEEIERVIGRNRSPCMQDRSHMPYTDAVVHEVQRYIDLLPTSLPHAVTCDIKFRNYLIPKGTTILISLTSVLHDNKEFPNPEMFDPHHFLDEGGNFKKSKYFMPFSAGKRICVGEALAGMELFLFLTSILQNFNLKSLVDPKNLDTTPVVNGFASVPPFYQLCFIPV

Turning to `COc1cc2ncnc(Nc3cccc(Cl)c3F)c2cc1OCCON1CCN(C)CC1` [Compound 15, N-(3-chloro-2-fluorophenyl)-7-methoxy-6-(2-((4-methylpiperazin-1-yl)oxy)ethoxy)quinazolin-4-amine], the stability in hepatocytes result in data set [1] was “good stability”. Besides, the IC50 – broadly, the concentration at which inhibition is half-maximal – at 5 min against CYP2C9 was > 30 µM. The IC50 against hERG channel (HEK293 cells transfected with hERG, patch clamp) is 6.48 µM. On hERG channel (at 10 μM), the hERG maximal inhibition result was “approximately 60%”. Besides, the IC50 at 20 min against CYP2C19 was > 30 µM.
